Experiments:
Type in all cases: cell-based
[1] = system: RS4;11-BCL-2 F104L cells; assay: Cell proliferation assay (MTS), RS4;11-BCL-2 F104L engineered cells; settings: Homo sapiens, 120 h, read-out: RS4, 11 BCL2-F104L IC50
Source text: MTS testing kit was purchased from Promega (Madison, WI, USA). The RPMI-1640, Fetal bovine serum and Penicillin-Streptomycin were purchased from BI (Biological Industries, Beit Haemek, Israel). Puromycin was purchased from Beyotime (shanghai, China). Dimethyl sulfoxide (DMSO) was purchased from Sigma (St. Louis., MO, USA). RS4;11-BCL-2 G101V (Cobioer Lot. #: CBD2021063013P4), RS4;11-BCL-2 D103E (Cobioer Lot. #: CBD2021063013P4), RS4;11-BCL-2 D103Y (Cobioer Lot. #: CBD2022012101P4) and RS4;11-BCL-2 F104L (Cobioer Lot. #: CBD2021063014P4) cells were cultured in RPMI1640 supplemented with 1 ug/mL puromycin, 100 U/mL Penicillin-Streptomycin and 10% FBS.
To investigate whether a compound is able to inhibit the activity of BCL-2 mutation in cells, a mechanism-based assay using engineered cell lines stably overexpressing BCL-2 mutation (RS4;11-BCL-2 G101V, RS4;11-BCL-2 D103E, RS4;11-BCL-2 D103Y, and RS4;11-BCL-2 F104L) was developed. In this assay, the inhibition of BCL-2 mutation was reflected by the inhibition of cell proliferation of engineered RS4;11 cells. Cells were plated into 96-well plates at optimized cell density (RS4;11-BCL-2 G101V: 5000 cells/well; RS4;11-BCL-2 D103E: 7500 cells/well; RS4;11-BCL-2 D103Y: 7500 cells/well; RS4;11-BCL-2 F104L: 5000 cells/well). Plates were incubated at 37° C., with 5% CO2 for 4 h (RS4;11-BCL-2 G101V, RS4;11-BCL-2 F104L) and 24 h (RS4;11-BCL-2 D103E, RS4;11-BCL-2 D103Y), respectively. Compounds were serially diluted and added to the plates with the final concentrations of 10000, 3333.3, 1111.1, 370.4, 123.5, 41.2, 13.7, 4.6 and 1.5 nM. Plates were incubated at 37° C., with 5% CO2 for 120 h (RS4; 11-BCL-2 G101V, RS4; 11-BCL-2 F104L) and 72 h (RS4;11-BCL-2 D103E, RS4;11-BCL-2 D103Y), respectively. 20 μl MTS was added into each well and the plates were incubated at 37° C., with 5% CO2 exactly for 2 h. The absorbance was measured by a microplate reader at 490 nm. IC50 values were calculated using GraphPad Prism 8.0 software.

[2] = system: Toledo cells; assay: Cell proliferation assay (MTS), Toledo cells; settings: Homo sapiens, 72 h
Method in brief: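 Toledo cells (RPMI-1640, 10% FBS) seeded at 30000 cells/well, rested 4 h, then exposed 72 h at 37 °C, 5% CO2 to compound at nine final concentrations, 1.5–10000 nM. Viability by MTS (2 h), absorbance at 490 nm. IC50 from the concentration-response.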

[3] = system: RS4;11-BCL-2 G101V cells; assay: Cell proliferation assay (MTS), RS4;11-BCL-2 G101V engineered cells; settings: Homo sapiens, 120 h, read-out: RS4, 11 BCL2-G101V IC50
Method in brief: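 RS4;11 cells stably overexpressing mutant BCL-2 were seeded and pre-incubated 4 h (G101V, F104L) or 24 h (D103E, D103Y), then exposed to compound at 1.5–10000 nM for 120 h (G101V, F104L) or 72 h (D103E, D103Y) at 37 °C. Viability was read by MTS absorbance at 490 nm after 2 h; IC50 fitted.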

Row | Compound | IC50 [1] [nM] | IC50 [2] [nM] | IC50 [3] [nM]
1 | CCOc1nc2[nH]cc(F)c2cc1Oc1cc(N2CCC3(CC2)CC(N2CCN(Cc4ccc(C5CC5)c(OC)c4)C[C@H]2c2ccccc2C(C)C)C3)ccc1C(=O)NS(=O)(=O)c1cnc(NC[C@H]2CC[C@](C)(O)CC2)c([N+](=O)[O-])c1 [Example 6, 4-(2-((R)-4-(4-cyclopropyl-3-methoxybenzyl)-2-(2-isopropylphenyl)piperazin-1-yl)-7-azaspiro[3.5]nonan-7-yl)-2-((6-ethoxy-3-fluoro-1H-pyrrolo[2,3-b]pyridin-5-yl)oxy)-N-((6-((((1r,4r)-4-hydroxy-4-methylcyclohexyl)methyl)amino)-5-nitropyridin-3-yl)sulfonyl)benzamide] | 1 | 1 | 1
2 | CCOc1nc2[nH]cc(F)c2cc1Oc1cc(N2CCC3(CC2)CC(N2CCN(Cc4ccc(OC)c5oc(C)cc45)C[C@H]2c2ccccc2C(C)C)C3)ccc1C(=O)NS(=O)(=O)c1cnc(NC[C@H]2CC[C@](C)(O)CC2)c([N+](=O)[O-])c1 [Example 14, 2-((6-ethoxy-3-fluoro-1H-pyrrolo[2,3-b]pyridin-5-yl)oxy)-N-((6-((((1r,4r)-4-hydroxy-4-methylcyclohexyl)methyl)amino)-5-nitropyridin-3-yl)sulfonyl)-4-(2-((R)-2-(2-isopropylphenyl)-4-((7-methoxy-2-methylbenzofuran-4-yl)methyl)piperazin-1-yl)-7-azaspiro[3.5]nonan-7-yl)benzamide] | 1 | 1 | 1
3 | CCOc1cc(CN2CCN(C3CC4(CCN(c5ccc(C(=O)NS(=O)(=O)c6cnc(NC[C@H]7CC[C@](C)(O)CC7)c([N+](=O)[O-])c6)c(Oc6cc7c(F)c[nH]c7nc6OC)c5)CC4)C3)[C@H](c3ccccc3C(C)C)C2)ccn1 [Example 65, 4-(2-((R)-4-((2-ethoxypyridin-4-yl)methyl)-2-(2-isopropylphenyl)piperazin-1-yl)-7-azaspiro[3.5]nonan-7-yl)-2-((3-fluoro-6-methoxy-1H-pyrrolo[2,3-b]pyridin-5-yl)oxy)-N-((6-((((1r,4r)-4-hydroxy-4-methylcyclohexyl)methyl)amino)-5-nitropyridin-3-yl)sulfonyl)benzamide] | 1 |  | 1
4 | COc1ccc(CN2CCN(C3CC4(CCN(c5ccc(C(=O)NS(=O)(=O)c6cnc(NC[C@H]7CC[C@](C)(O)CC7)c([N+](=O)[O-])c6)c(Oc6cnc7[nH]ccc7c6)c5)CC4)C3)[C@H](c3ccccc3C(C)C)C2)c2cc(C)oc12 [Example 66, 2-((1H-pyrrolo[2,3-b]pyridin-5-yl)oxy)-N-((6-((((1r,4r)-4-hydroxy-4-methylcyclohexyl)methyl)amino)-5-nitropyridin-3-yl)sulfonyl)-4-(2-((R)-2-(2-isopropylphenyl)-4-((7-methoxy-2-methylbenzofuran-4-yl)methyl)piperazin-1-yl)-7-azaspiro[3.5]nonan-7-yl)benzamide] | 1 |  | 1
5 | COc1nc2[nH]cc(F)c2cc1Oc1cc(N2CCC3(CC2)CC(N2CCN(Cc4ccnc(OC(F)F)c4)C[C@H]2c2ccccc2C(C)C)C3)ccc1C(=O)NS(=O)(=O)c1cnc(NC[C@H]2CC[C@](C)(O)CC2)c([N+](=O)[O-])c1 [Example 67, 4-(2-((R)-4-((2-(difluoromethoxy)pyridin-4-yl)methyl)-2-(2-isopropylphenyl)piperazin-1-yl)-7-azaspiro[3.5]nonan-7-yl)-2-((3-fluoro-6-methoxy-1H-pyrrolo[2,3-b]pyridin-5-yl)oxy)-N-((6-((((1r,4r)-4-hydroxy-4-methylcyclohexyl)methyl)amino)-5-nitropyridin-3-yl)sulfonyl)benzamide] | 1 |  | 1
6 | COc1nc2[nH]cc(F)c2cc1Oc1cc(N2CCC3(CC2)CC(N2CCOC[C@H]2c2ccccc2C(C)C)C3)ccc1C(=O)NS(=O)(=O)c1cnc(NC[C@H]2CC[C@](C)(O)CC2)c([N+](=O)[O-])c1 [Example 87, 2-((3-fluoro-6-methoxy-1H-pyrrolo[2,3-b]pyridin-5-yl)oxy)-N-((6-((((1r,4r)-4-hydroxy-4-methylcyclohexyl)methyl)amino)-5-nitropyridin-3-yl)sulfonyl)-4-(2-((R)-3-(2-isopropylphenyl)morpholino)-7-azaspiro[3.5]nonan-7-yl)benzamide] | 1 | 1 | 1
7 | COc1nc2[nH]cc(F)c2cc1Oc1cc(N2CCC3(CC2)CC(N2CCC[C@H]2c2ccccc2C(C)C)C3)ccc1C(=O)NS(=O)(=O)c1cnc(NC[C@H]2CC[C@](C)(O)CC2)c([N+](=O)[O-])c1 [Example 89, 2-((3-fluoro-6-methoxy-1H-pyrrolo[2,3-b]pyridin-5-yl)oxy)-N-((6-((((1r,4r)-4-hydroxy-4-methylcyclohexyl)methyl)amino)-5-nitropyridin-3-yl)sulfonyl)-4-(2-((S)-2-(2-isopropylphenyl)pyrrolidin-1-yl)-7-azaspiro[3.5]nonan-7-yl)benzamide] | 1 |  | 1
8 | COc1ccc(CN2CCN(C3CC4(CCN(c5ccc(C(=O)NS(=O)(=O)c6cnc(NC[C@H]7CC[C@](C)(O)CC7)c([N+](=O)[O-])c6)c(Oc6cc7c(F)c[nH]c7nc6OC)c5)CC4)C3)[C@H](c3ccccc3C(C)C)C2)cc1F [Example 97, 4-(2-((R)-4-(3-fluoro-4-methoxybenzyl)-2-(2-isopropylphenyl)piperazin-1-yl)-7-azaspiro[3.5]nonan-7-yl)-2-((3-fluoro-6-methoxy-1H-pyrrolo[2,3-b]pyridin-5-yl)oxy)-N-((6-((((1r,4r)-4-hydroxy-4-methylcyclohexyl)methyl)amino)-5-nitropyridin-3-yl)sulfonyl)benzamide] | 1 | 1 | 
9 | COc1cc(CN2CCN(C3CC4(CCN(c5ccc(C(=O)NS(=O)(=O)c6cnc(NC[C@H]7CC[C@](C)(O)CC7)c([N+](=O)[O-])c6)c(Oc6cc7c(F)c[nH]c7nc6OC)c5)CC4)C3)[C@H](c3ccccc3C(C)C)C2)cc2c1OCCC2 [Example 103, 2-((3-fluoro-6-methoxy-1H-pyrrolo[2,3-b]pyridin-5-yl)oxy)-N-((6-((((1r,4r)-4-hydroxy-4-methylcyclohexyl)methyl)amino)-5-nitropyridin-3-yl)sulfonyl)-4-(2-((R)-2-(2-isopropylphenyl)-4-((8-methoxychroman-6-yl)methyl)piperazin-1-yl)-7-azaspiro[3.5]nonan-7-yl)benzamide] | 1 | 1 | 
10 | COc1nc2[nH]cc(F)c2cc1Oc1cc(N2CCC3(CC2)CC(N2CCN(Cc4ccc(S(C)(=N)=O)cc4)C[C@H]2c2ccccc2C(C)C)C3)ccc1C(=O)NS(=O)(=O)c1cnc(NC[C@H]2CC[C@](C)(O)CC2)c([N+](=O)[O-])c1 (stereo partly drawn) [Example 336, 2-((3-fluoro-6-methoxy-1H-pyrrolo[2,3-b]pyridin-5-yl)oxy)-N-((6-((((1r,4r)-4-hydroxy-4-methylcyclohexyl)methyl)amino)-5-nitropyridin-3-yl)sulfonyl)-4-(2-((2R)-2-(2-isopropylphenyl)-4-(4-(S-methylsulfonimidoyl)benzyl)piperazin-1-yl)-7-azaspiro[3.5]nonan-7-yl)benzamide] | 1 | 1 | 
11 | COc1nc2[nH]cc(F)c2cc1Oc1cc(N2CCC3(CC2)CC(N2CCN(Cc4ccnc(Cl)c4)C[C@H]2c2ccccc2C(C)C)C3)ccc1C(=O)NS(=O)(=O)c1cnc(NC[C@H]2CC[C@](C)(O)CC2)c([N+](=O)[O-])c1 [Example 357, 4-(2-((R)-4-((2-chloropyridin-4-yl)methyl)-2-(2-isopropylphenyl)piperazin-1-yl)-7-azaspiro[3.5]nonan-7-yl)-2-((3-fluoro-6-methoxy-1H-pyrrolo[2,3-b]pyridin-5-yl)oxy)-N-((6-((((1r,4r)-4-hydroxy-4-methylcyclohexyl)methyl)amino)-5-nitropyridin-3-yl)sulfonyl)benzamide] | 3 | 1 | 
